PubChem BioAssay AID2060890 (Molecular Pharmacology Branch, DTP, NCI, 2025)

System: LG0703-F948-PDC complex spheroid viability
Assay: Anticancer human tumor LG0703-F948-PDC patient-derived lung adenocarcinoma cell line growth inhibition [RAS]
Conditions: for IC50: curve of first compound; for viability, T/C: stronger effect = lower value
Procedure, shortened: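 Multi-cell-type spheroids: tumor cells plus HUVEC endothelial cells and mesenchymal stem cells. RAS-pathway inhibitors were combined with targeted agents, each dosed in half-log steps down from clinical Cmax, or from 10 microM when Cmax was unknown.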
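Further: spheroids exposed to agents for 7 days.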
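Wherever viability, T/C is given: 100% = DMSO vehicle wells.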

In the case of `C[C@@H](NC(=O)c1ncnc(N)c1Cl)c1ncc(C(=O)Nc2cc(C(F)(F)F)c(Cl)cn2)s1` + C=CC(=O)N1CCN(c2nc(OCC3CCCN3C)nc3c(F)c(-c4nc(N)cc(C)c4C(F)(F)F)c(Cl)cc23)C(C)C1, the IC50 (second compound 0.00316 µM) is reported as greater than 10000 nM, the IC50 (second compound 0.01 µM) is reported as greater than 10000 nM and the IC50 (second compound 0.0316 µM) is reported as greater than 10000 nM. For the same compound, the IC50 (second compound 0.1 µM) was greater than 10000 nM, the IC50 (second compound 0.316 µM) was greater than 10000 nM and the IC50 (second compound 1 µM) was greater than 10000 nM. For the same compound, the viability, T/C (second compound 0.00316 µM, first compound 0.0316 µM) was 99.4%, the viability, T/C (second compound 0.00316 µM, first compound 0.1 µM) was 100% and the viability, T/C (second compound 0.00316 µM, first compound 0.316 µM) was 107%. For the same compound, the viability, T/C (second compound 0.00316 µM, first compound 1 µM) was 110%, the viability, T/C (second compound 0.00316 µM, first compound 3.16 µM) was 104% and the viability, T/C (second compound 0.00316 µM, first compound 10 µM) was 93%. The viability, T/C (second compound 0.01 µM, first compound 0.0316 µM) was 113%, the viability, T/C (second compound 0.01 µM, first compound 0.1 µM) was 103% and the viability, T/C (second compound 0.01 µM, first compound 0.316 µM) was 107%. For the same compound, the viability, T/C (second compound 0.01 µM, first compound 1 µM) was 111%, the viability, T/C (second compound 0.01 µM, first compound 3.16 µM) was 109% and the viability, T/C (second compound 0.01 µM, first compound 10 µM) was 97.2%. The viability, T/C (second compound 0.0316 µM, first compound 0.0316 µM) was 103%, the viability, T/C (second compound 0.0316 µM, first compound 0.1 µM) was 109% and the viability, T/C (second compound 0.0316 µM, first compound 0.316 µM) was 95.8%. For the same compound, the viability, T/C (second compound 0.0316 µM, first compound 1 µM) was 102%, the viability, T/C (second compound 0.0316 µM, first compound 3.16 µM) was 121% and the viability, T/C (second compound 0.0316 µM, first compound 10 µM) was 95.2%. It also gave a viability, T/C (second compound 0.1 µM, first compound 0.0316 µM) of 106%, a viability, T/C (second compound 0.1 µM, first compound 0.1 µM) of 109% and a viability, T/C (second compound 0.1 µM, first compound 0.316 µM) of 113%. The viability, T/C (second compound 0.1 µM, first compound 1 µM) was 109%, the viability, T/C (second compound 0.1 µM, first compound 3.16 µM) was 118% and the viability, T/C (second compound 0.1 µM, first compound 10 µM) was 95.2%. It also gave a viability, T/C (second compound 0.316 µM, first compound 0.0316 µM) of 118%, a viability, T/C (second compound 0.316 µM, first compound 0.1 µM) of 105% and a viability, T/C (second compound 0.316 µM, first compound 0.316 µM) of 108%. The viability, T/C (second compound 0.316 µM, first compound 1 µM) was 114%, the viability, T/C (second compound 0.316 µM, first compound 3.16 µM) was 117% and the viability, T/C (second compound 0.316 µM, first compound 10 µM) was 100%. For the same compound, the viability, T/C (second compound 1 µM, first compound 0.0316 µM) was 115%, the viability, T/C (second compound 1 µM, first compound 0.1 µM) was 116% and the viability, T/C (second compound 1 µM, first compound 0.316 µM) was 118%. It also gave a viability, T/C (second compound 1 µM, first compound 1 µM) of 132%, a viability, T/C (second compound 1 µM, first compound 3.16 µM) of 129% and a viability, T/C (second compound 1 µM, first compound 10 µM) of 98.3%.
`C=CC(=O)Nc1cc(Nc2nccc(-c3cn(C)c4ccccc34)n2)c(OC)cc1N(C)CCN(C)C` + CCn1c(-c2cc(N3CCN(C)CC3)cnc2C(C)OC)c2c3cc(ccc31)-c1csc(n1)CC(NC(=O)C1CC1C)C(=O)N1CCCC(N1)C(=O)OCC(C)(C)C2 was tested, and the IC50 (second compound 0.000949 µM) was 5.17 nM, the IC50 (second compound 0.003 µM) was less than 3.16 nM and the IC50 (second compound 0.00949 µM) was less than 3.16 nM. It also gave an IC50 (second compound 0.03 µM) of less than 3.16 nM, an IC50 (second compound 0.0949 µM) of less than 3.16 nM and an IC50 (second compound 0.3 µM) of less than 3.16 nM. The viability, T/C (second compound 0.000949 µM, first compound 0.00316 µM) was 62.6%, the viability, T/C (second compound 0.000949 µM, first compound 0.01 µM) was 33% and the viability, T/C (second compound 0.000949 µM, first compound 0.0316 µM) was 17.7%. The viability, T/C (second compound 0.000949 µM, first compound 0.1 µM) was 12.9%, the viability, T/C (second compound 0.000949 µM, first compound 0.316 µM) was 11.6% and the viability, T/C (second compound 0.000949 µM, first compound 1 µM) was 9.33%. The viability, T/C (second compound 0.003 µM, first compound 0.00316 µM) was 30.5%, the viability, T/C (second compound 0.003 µM, first compound 0.01 µM) was 18.5% and the viability, T/C (second compound 0.003 µM, first compound 0.0316 µM) was 12.6%. It also gave a viability, T/C (second compound 0.003 µM, first compound 0.1 µM) of 10.9%, a viability, T/C (second compound 0.003 µM, first compound 0.316 µM) of 12.3% and a viability, T/C (second compound 0.003 µM, first compound 1 µM) of 8.1%. It also gave a viability, T/C (second compound 0.00949 µM, first compound 0.00316 µM) of 24%, a viability, T/C (second compound 0.00949 µM, first compound 0.01 µM) of 14.2% and a viability, T/C (second compound 0.00949 µM, first compound 0.0316 µM) of 12.6%. It also gave a viability, T/C (second compound 0.00949 µM, first compound 0.1 µM) of 9.67%, a viability, T/C (second compound 0.00949 µM, first compound 0.316 µM) of 8.83% and a viability, T/C (second compound 0.00949 µM, first compound 1 µM) of 9.91%. For the same compound, the viability, T/C (second compound 0.03 µM, first compound 0.00316 µM) was 14.1%, the viability, T/C (second compound 0.03 µM, first compound 0.01 µM) was 13.1% and the viability, T/C (second compound 0.03 µM, first compound 0.0316 µM) was 8.75%. It also gave a viability, T/C (second compound 0.03 µM, first compound 0.1 µM) of 7.03%, a viability, T/C (second compound 0.03 µM, first compound 0.316 µM) of 6.1% and a viability, T/C (second compound 0.03 µM, first compound 1 µM) of 4.67%. The viability, T/C (second compound 0.0949 µM, first compound 0.00316 µM) was 9.07%, the viability, T/C (second compound 0.0949 µM, first compound 0.01 µM) was 7.77% and the viability, T/C (second compound 0.0949 µM, first compound 0.0316 µM) was 5.22%. The viability, T/C (second compound 0.0949 µM, first compound 0.1 µM) was 5.15%, the viability, T/C (second compound 0.0949 µM, first compound 0.316 µM) was 5.21% and the viability, T/C (second compound 0.0949 µM, first compound 1 µM) was 3.75%. It also gave a viability, T/C (second compound 0.3 µM, first compound 0.00316 µM) of 7.47%, a viability, T/C (second compound 0.3 µM, first compound 0.01 µM) of 9.59% and a viability, T/C (second compound 0.3 µM, first compound 0.0316 µM) of 5.92%. For the same compound, the viability, T/C (second compound 0.3 µM, first compound 0.1 µM) was 5.32%, the viability, T/C (second compound 0.3 µM, first compound 0.316 µM) was 4.11% and the viability, T/C (second compound 0.3 µM, first compound 1 µM) was 2.62%.
